According to patent publication US10604512B2, “3-(1H-indol-2-yl)-1H-indazoles and therapeutic uses thereof” (Samumed, LLC, priority 2015, dated 2020):

Experiments:
Type in all cases: cell-based
[1] = system: Primary human fibroblasts derived from IPF patients (LL29 cells) treated with TGF-β1; assay: Inhibition of the fibrotic process: αSMA staining in TGF-β1-treated primary human fibroblasts from IPF patients (LL29 cells); details: Fibroblast, 96 h, % αSMA-positive LL29 cells, TGF-β1 20 ng/mL, 4 days
From the text: Representative compounds were screened using primary human fibroblasts (derived from IPF patients) treated with TGF-β1 to determine their ability to inhibit the fibrotic process.
Primary human fibroblasts derived from IPF patients (LL29 cells) [^1Xiaoqiu Liu, et. al., “Fibrotic Lung Fibroblasts Show Blunted Inhibition by cAMP Due to Deficient cAMP Response Element-Binding Protein Phosphorylation”, Journal of Pharmacology and Experimental Therapeutics (2005), 315(2), 678-687; ^2Watts, K. L., et. al., “RhoA signaling modulates cyclin D1 expression in human lung fibroblasts; implications for idiopathic pulmonary fibrosis”, Respiratory Research (2006), 7(1), 88] were obtained from American Type Culture Collection (ATCC) and expanded in F12 medium supplemented with 15% Fetal Bovine Serum and Penicillin/Streptomycin.
Each compound was dissolved in DMSO as a 10 mM stock and used to prepare compound source plates. Serial dilution (1:2, 11-point dose-response curves from 10 μM to […]) and compound transfer was performed using the ECHO 550 (Labcyte, Sunnyvale, Calif.) into 384-well clear bottom assay plates (Greiner Bio-One) with appropriate DMSO backfill for a final DMSO concentration of 0.1%. LL29 cells are plated at 1,500 cells/well in 80 μL/well F12 medium supplemented with 1% Fetal Bovine Serum. One hour after addition of the cells, TGF-β1 (Peprotech; 20 ng/mL) was added to the plates to induce fibrosis (ref 1 and 2 above). Wells treated with TGF-β1 and containing DMSO were used as controls. Cells were incubated at 37° C. and 5% CO2 for 4 days. Following incubation for 4 days, SYTOX green nucleic acid stain (Life Technologies [Thermo Fisher Scientific]) was added to the wells at a final concentration of 1 μM and incubated at room temperature for 30 min. Cells were then fixed using 4% formaldehyde (Electron Microscopy Sciences), washed 3 times with PBS followed by blocking and permeabilization using 3% Bovine Serum Albumin (BSA; Sigma) and 0.3% Triton X-100 (Sigma) in PBS. Cells were then stained with antibody specific to α-smooth muscle actin (αSMA; Abcam) (ref 1 and 2 above) in 3% Bovine Serum Albumin (BSA; Sigma) and 0.3% Triton X-100 (Sigma) in PBS, and incubated overnight at 4° C. Cells were then washed 3 times with PBS, followed by incubation with Alexa Flor-647 conjugated secondary antibody (Life Technologies [Thermo Fisher Scientific]) and DAPI at room temperature for 1 hour. Cells were then washed 3 times with PBS and plates were sealed for imaging. αSMA staining was imaged by excitation at 630 nm and emission at 665 nm and quantified using the Compartmental Analysis program on the CellInsight CX5 (Thermo Scientific). Dead or apoptotic cells were excluded from analysis based on positive SYTOX green staining. % of total cells positive for αSMA were counted in each well and normalized to the average of 11 wells treated with TGF-β1 on the same plate using Dotmatics' Studies Software. The normalized averages (fold change over untreated) of 3 replicate wells for each compound concentration were used to create dose-responses curves and EC50 values were calculated using non-linear regression curve fit in the Dotmatics' Studies Software. For EC50 of >10 μM, the percent inhibition at 10 μM is provided.

[2] = system: Wnt activity (Sp5-Luc reporter, TCF/LEF binding sites) in SW480 colon carcinoma cells; assay: Screening assay for Wnt activity: Sp5-Luc reporter gene assay in stably transduced SW480 colon carcinoma cells; details: Homo sapiens, overnight incubation, 10-point curve from 10 μM
From the text: The screening assay for Wnt activity is described as follows. Reporter cell lines can be generated by stably transducing cancer cell lines (e.g., colon cancer) or primary cells (e.g., IEC-6 intestinal cells) with a lentiviral construct that includes a Wnt-responsive promoter driving expression of the firefly luciferase gene.
SW480 colon carcinoma cells were transduced with a lentiviral vector expressing luciferase with a human Sp5 promoter consisting of a sequence of eight TCF/LEF binding sites. SW480 cells stably expressing the Sp5-Luc reporter gene and a hygromycin resistance gene were selected by treatment with 150 μg/mL of hygromycin for 7 days. These stably transduced SW480 cells were expanded in cell culture and used for all further screening activities. Each compound was dissolved in DMSO as a 10 mM stock and used to prepare compound source plates. Serial dilution (1:3, 10-point dose-response curves starting from 10 μM) and compound transfer was performed using the ECHO 550 (Labcyte, Sunnyvale, Calif.) into 384-well white solid bottom assay plates (Greiner Bio-One) with appropriate DMSO backfill for a final DMSO concentration of 0.1%. For Sp5-Luc reporter gene assays, the cells were plated at 4,000 cells/well in 384-well plates with medium containing 1% fetal bovine serum and incubated overnight at 37° C. and 5% CO2. Following incubation, 20 μl of BrightGlo luminescence reagent (Promega) was added to each well of the 384-well assay plates. The plates were placed on an orbital shaker for 2 min and then luminescence was quantified using the Envision (Perkin Elmer) plate reader. Readings were normalized to DMSO only treated cells, and normalized activities were utilized for EC50 calculations using the dose-response log (inhibitor) vs. response variable slope (four parameters) nonlinear regression feature available in GraphPad Prism 5.0 (or Dotmatics). For EC50 of >10 μM, the percent inhibition at 10 μM is provided.

[3] = system: SW480 colon cancer cells; assay: Cell viability assay (CellTiter-Blue) in SW480 colon cancer cells; details: Homo sapiens, 96 h, four days, CellTiter-Blue
Procedure: Representative compounds were screened using the following assay procedure to assess the effect on cell viability as described below.
Each compound was dissolved in DMSO as a 10 mM stock and used to prepare compound source plates. Serial dilution (1:3, 8-point dose-response curves from 10 μM to 0.0045 μM) and compound transfer was performed using the ECHO 550 (Labcyte, Sunnyvale, Calif.) into 96-well clear bottom, black-walled plates (Corning-Costar).
Approximately 2×10^3 SW480 colon cancer cells were seeded into each well and allowed to incubate in the presence or absence of compound for four days at 37° C./5% CO2. Eight replicates of DMSO-treated cells served as controls and cells treated with compound were performed in duplicate.
After incubation, 20 μL of CellTiter-Blue (Promega) was added to each well allowed to incubate for approximately 3 hours. This reagent was a buffered solution which contains resazurin, metabolically active cells were able to reduce rezarurin (blue) into resorufin (pink) which was highly fluorescent. This measured fluorescence was used as a readout for cell viability.
After incubation, the plates were read at Ex 560 nm Em 590 nm (Cytation 3, BioTek). Dose-response curves were generated and EC50 concentration values were calculated using non-linear regression curve fit in the GraphPad Prism (San Diego, Calif.) or Dotmatics' Studies Software (Bishops Stortford, UK). For EC50 of >10 μM, the percent inhibition at 10 μM is provided.

[4] = system: IL-6; assay: Inhibition of IL-6 in LPS-stimulated THP-1 human monocyte cells (HTRF); details: for EC50: IL-6 inhibition, LPS-stimulated THP-1 cells, HTRF
Procedure: Human monocyte cell line (THP-1 cells; Catalog # TIB-202, ATCC, Manassas, Va.) were cultured in Roswell Park Memorial Institute (RPMI) 1640 Medium (Catalog #21870-100, Buffalo, N.Y.) with 1% L-glutamine, 1% HEPES, 1% Sodium Pyruvate, 2% Sodium Bicarbonate supplemented with 100 units/mL penicillin, 50 μg/mL streptomycin, 2-mercaptoethanol (0.05 mM) [basal medium] and 10% fetal bovine serum (Catalog #16140089, Life Technologies, Carlsbad, Calif.) at 37° C. and 5% CO2.
THP-1 cells were cultured in basal media with 1% FBS for 24 hours before the start of the assay. Each compound was dissolved in DMSO as a 10 mM stock and used to prepare compound source plates. Serial dilution (1:3, 10-point dose-response curves starting from 10 μM) and compound transfer was performed using the ECHO 550 (Labcyte, Sunnyvale, Calif.) into 384-well white low volume assay plates (Greiner Bio-One) with appropriate DMSO backfill for a final DMSO concentration of 0.1%. THP-1 cells were plated at 5000 cells/well in the 384-well plates and incubated at 37° C. for 2 h. 500 ng/mL of LPS was added after 2 hours and cells were incubated for another 22 hours at 37° C. Plates were spun in a centrifuge for 1 minute at […] and a mixture of anti-IL6 XL665, and anti-IL6 Cryptate diluted in reconstitution buffer (Cisbio Inc.) was added to each well. Following incubation for 3 hrs at room temperature, Homogeneous Time-Resolved Fluorescence (HTRF) was measured using the Envision (Perkin Elmer) at 665 nm and […]. The ratio of fluorescence at 665 nm to 620 nm was used as a readout for IL6 quantification. All samples were processed in duplicate. Readings were normalized to DMSO treated cells and normalized activities were utilized for EC50 calculations using the dose-response log (inhibitor) vs. response variable slope (four parameters) nonlinear regression feature available in GraphPad Prism 5.0 (or Dotmatics). For EC50 of >10 μM, the percent inhibition at 10 μM is provided.

EC50 [2] [nM] | EC50 [3] [nM] | EC50 [4] [nM] | SMILES | EC50 [1] [nM] | inhibition at 10 µM ([4]; THP-1, printed beside >10 μM EC50, top concentration 10 μM, meaning not given, read-out: percentage in parentheses after EC50 >10) [%]
140 | 1320 | 153 | CC(C)(C)C(=O)Nc1cncc(-c2ccc3[nH]nc(-c4cc5c(-c6cccnc6)cccc5[nH]4)c3c2)c1 [Compound 92, N-(5-(3-(4-(Pyridin-3-yl)-1H-indol-2-yl)-1H-indazol-5-yl)pyridin-3-yl) pivalamide] | 612 | –
689 | 1380 | 731 | CN(C)CCNc1cc(F)cc(-c2cccc3[nH]c(-c4n[nH]c5ccc(-c6cncc(NC(=O)C7CCCCC7)c6)cc45)cc23)c1 [Compound 471, N-(5-(3-(4-(3-((2-(Dimethylamino)ethyl)amino)-5-fluorophenyl)-1H-indol-2-yl)-1H-indazol-5-yl)pyridin-3-yl)cyclohexanecarboxamide] | 1420 | –
469 | 1840 | 7150 | CCCC(=O)Nc1cncc(-c2ccc3[nH]nc(-c4cc5c(N6CCCCC6)cccc5[nH]4)c3c2)c1 [Compound 185, N-(5-(3-(4-(Piperidin-1-yl)-1H-indol-2-yl)-1H-indazol-5-yl)pyridin-3-yl) butyramide] | 682 | –
150 | 949 | 12 | Cn1cc(-c2ccc3[nH]nc(-c4cc5c(-c6cccnc6)cccc5[nH]4)c3c2)cn1 [Compound 584, 5-(1-Methyl-1H-pyrazol-4-yl)-3-(4-(pyridin-3-yl)-1H-indol-2-yl)-1H-indazole] | 6820 | –
120 | 568 | 1060 | CN(C)Cc1cncc(-c2ccc3[nH]nc(-c4cc5c(-c6cc(F)cc(CNS(C)(=O)=O)c6)cccc5[nH]4)c3c2)c1 [Compound 489, N-(3-(2-(5-(5-((Dimethylamino)methyl)pyridin-3-yl)-1H-indazol-3-yl)-1H-indol-4-yl)-5-fluorobenzyl)methanesulfonamide] | 406 | –
600 | 1450 | 445 | CC(C)(C)C(=O)Nc1cncc(-c2ccc3[nH]nc(-c4cc5c(-c6ccncc6)cccc5[nH]4)c3c2)c1 [Compound 120, N-(5-(3-(4-(Pyridin-4-yl)-1H-indol-2-yl)-1H-indazol-5-yl)pyridin-3-yl) pivalamide] | 218 | –
67 | 212 | 109 | CN(C)CCNc1cc(F)cc(-c2cccc3[nH]c(-c4n[nH]c5ccc(-c6cncc(NC(=O)c7ccccc7)c6)cc45)cc23)c1 [Compound 459, N-(5-(3-(4-(3-((2-(Dimethylamino)ethyl)amino)-5-fluorophenyl)-1H-indol-2-yl)-1H-indazol-5-yl)pyridin-3-yl)benzamide] | 77 | –
1020 | 1400 | 3500 | Fc1ccccc1-c1cccc2[nH]c(-c3n[nH]c4ccc(-c5cncc(OC6CCNCC6)c5)cc34)cc12 [Compound 572, 3-(4-(2-Fluorophenyl)-1H-indol-2-yl)-5-(5-(piperidin-4-yloxy)pyridin-3-yl)-1H-indazole] | 2230 | –
130 | 1030 | 991 | CS(=O)(=O)NCc1cc(F)cc(-c2cccc3[nH]c(-c4n[nH]c5ccc(-c6cncc(NC(=O)C7CC7)c6)cc45)cc23)c1 [Compound 496, N-(5-(3-(4-(3-Fluoro-5-(methylsulfonamidomethyl)phenyl)-1H-indol-2-yl)-1H-indazol-5-yl)pyridin-3-yl)cyclopropanecarboxamide] | 399 | –
525 | 1000 | 529 | CCNCc1cncc(-c2ccc3[nH]nc(-c4cc5c(-c6ccccn6)cccc5[nH]4)c3c2)c1 [Compound 146, N-((5-(3-(4-(Pyridin-2-yl)-1H-indol-2-yl)-1H-indazol-5-yl)pyridin-3-yl)methyl)ethanamine] | 1410 | –
250 | 1100 | > 10000 | COc1cncc(-c2ccc3[nH]nc(-c4cc5c(-c6ccc(C)s6)cccc5[nH]4)c3c2)c1 [Compound 768, 5-(5-Methoxypyridin-3-yl)-3-(4-(5-methylthiophen-2-yl)-1H-indol-2-yl)-1H-indazole] | – | 49.8
